Source: patent publication US10894786B2, “Substituted pyrazole derivatives as selective CDK12/13 inhibitors” (Aurigene Discovery Technologies Limited, priority 2018, dated 2021)
Where two headings read alike, the source gives them in different places.

Experiments:
CDK12 [1] = target: T1, CDK12 (Homo sapiens (Human), UniProt Q9NYV4); experiment: Biochemical assay for CDK12 (IC50 determination), LANCE TR-FRET; settings: for IC50: ATP 100 μM, 60 min pre-incubation
Experimental: The inhibitory activity of the test compounds was assessed by the LANCE TR-FRET assay, which detects the ATP-dependent phosphorylation of an ULight-4E-BP1 (Thr37/Thr46) substrate peptide (100 nM) by CDK12 (30 nM). Briefly, the enzyme reaction was run in reaction buffer (25 mM HEPES (pH 7.5), 10 mM MgCl2, 0.01% BSA, 0.01% Triton x, 1 mM DTT). The assay was performed in 384-well plate format. The end concentration of the ATP substrate was 100 μM, and that of the ULight-4E-BP1 (Thr37/Thr46) substrate peptide was 100 nM, and of CDK12 was 30 nM. Pre-incubation of the compound and enzyme was performed for 60 min at room temperature. After 60 min incubation at room temperature, the reaction was terminated by the addition of 40 mM EDTA and 0.5 nM Eu-labeled anti-phospho-eIF4E-binding protein (Thr37/46) antibody in LANCE detection buffer. […] The readout was calculated as (acceptor counts/donor counts)×1000. The IC50 values were derived by fitting a sigmoidal dose-response curve to a plot of assay readout over inhibitor concentration.
Target sequence in this assay (Q9NYV4 whole entry, looked up, species assumed): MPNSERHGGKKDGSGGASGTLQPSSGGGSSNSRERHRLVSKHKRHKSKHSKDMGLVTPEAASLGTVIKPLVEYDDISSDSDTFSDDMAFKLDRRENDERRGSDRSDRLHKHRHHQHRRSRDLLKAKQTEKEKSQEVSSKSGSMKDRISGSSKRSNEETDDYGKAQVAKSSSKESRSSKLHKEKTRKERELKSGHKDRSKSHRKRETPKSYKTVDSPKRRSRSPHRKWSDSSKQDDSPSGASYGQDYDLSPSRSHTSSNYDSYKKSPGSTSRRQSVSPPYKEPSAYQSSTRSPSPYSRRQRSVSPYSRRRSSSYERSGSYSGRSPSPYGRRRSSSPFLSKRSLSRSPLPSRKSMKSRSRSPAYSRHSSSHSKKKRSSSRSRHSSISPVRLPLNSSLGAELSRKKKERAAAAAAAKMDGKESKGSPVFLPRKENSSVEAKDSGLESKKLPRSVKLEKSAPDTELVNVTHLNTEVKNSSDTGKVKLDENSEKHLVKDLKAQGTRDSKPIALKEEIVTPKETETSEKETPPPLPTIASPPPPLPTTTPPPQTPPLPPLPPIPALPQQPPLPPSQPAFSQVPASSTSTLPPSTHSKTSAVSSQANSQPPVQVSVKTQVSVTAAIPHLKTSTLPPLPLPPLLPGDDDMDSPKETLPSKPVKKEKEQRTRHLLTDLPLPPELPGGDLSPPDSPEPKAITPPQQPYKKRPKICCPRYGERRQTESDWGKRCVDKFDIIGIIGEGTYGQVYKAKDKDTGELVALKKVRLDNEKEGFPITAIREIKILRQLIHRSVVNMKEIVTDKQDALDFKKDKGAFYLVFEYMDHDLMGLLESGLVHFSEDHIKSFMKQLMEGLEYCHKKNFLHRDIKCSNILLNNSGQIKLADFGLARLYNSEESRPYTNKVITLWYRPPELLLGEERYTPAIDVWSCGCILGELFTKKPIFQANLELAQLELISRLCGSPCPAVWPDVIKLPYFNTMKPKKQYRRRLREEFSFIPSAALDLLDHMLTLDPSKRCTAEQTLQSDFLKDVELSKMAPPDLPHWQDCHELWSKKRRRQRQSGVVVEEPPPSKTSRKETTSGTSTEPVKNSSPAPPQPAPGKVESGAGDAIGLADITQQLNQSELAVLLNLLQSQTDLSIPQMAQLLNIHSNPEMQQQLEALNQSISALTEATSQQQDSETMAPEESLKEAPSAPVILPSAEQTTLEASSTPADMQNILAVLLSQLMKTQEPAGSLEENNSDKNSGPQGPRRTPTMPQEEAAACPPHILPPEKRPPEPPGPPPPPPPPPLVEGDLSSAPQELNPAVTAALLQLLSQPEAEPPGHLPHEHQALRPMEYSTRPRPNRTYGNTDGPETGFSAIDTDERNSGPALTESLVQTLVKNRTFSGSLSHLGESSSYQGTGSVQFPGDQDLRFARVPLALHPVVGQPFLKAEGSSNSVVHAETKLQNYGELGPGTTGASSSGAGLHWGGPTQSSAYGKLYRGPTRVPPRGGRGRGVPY
Target sequence in this assay (O75909 whole entry partner, looked up, species assumed): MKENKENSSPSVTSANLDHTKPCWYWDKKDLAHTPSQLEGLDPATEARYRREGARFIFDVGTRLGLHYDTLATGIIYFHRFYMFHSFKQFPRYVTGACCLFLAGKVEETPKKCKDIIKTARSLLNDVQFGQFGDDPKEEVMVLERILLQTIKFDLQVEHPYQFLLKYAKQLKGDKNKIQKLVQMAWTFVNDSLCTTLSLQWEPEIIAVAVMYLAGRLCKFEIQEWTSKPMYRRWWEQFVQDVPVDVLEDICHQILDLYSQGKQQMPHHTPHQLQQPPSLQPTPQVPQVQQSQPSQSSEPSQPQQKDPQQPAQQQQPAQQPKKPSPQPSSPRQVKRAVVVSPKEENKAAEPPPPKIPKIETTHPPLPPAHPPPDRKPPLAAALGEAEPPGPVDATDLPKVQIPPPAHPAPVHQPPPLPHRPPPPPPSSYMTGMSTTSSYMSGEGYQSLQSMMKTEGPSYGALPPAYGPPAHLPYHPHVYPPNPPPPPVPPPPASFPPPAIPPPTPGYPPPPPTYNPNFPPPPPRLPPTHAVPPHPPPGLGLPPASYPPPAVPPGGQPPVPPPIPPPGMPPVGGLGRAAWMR

CDK12 [2] = target: T1, CDK12; experiment: Biochemical assay for CDK12 (Kd determination), kinase-tagged phage/qPCR competition binding
Experimental: Kinase-tagged T7 phage strains were grown in parallel in 24-well blocks in an E. coli host derived from the BL21 strain. E. coli were grown to log-phase and infected with T7 phage from a frozen stock (multiplicity of infection=0.4) and incubated with shaking at 32° C. until lysis (90-150 minutes). The lysates were centrifuged (6,000×g) and filtered (0.2 μm) to remove cell debris. The remaining kinases were produced in HEK-293 cells and subsequently tagged with DNA for qPCR detection. […] The liganded beads were blocked with excess biotin and washed with blocking buffer (SeaBlock (Pierce), 1% BSA, 0.05% Tween 20, 1 mM DTT) to remove unbound ligand and to reduce non-specific phage binding. […] Test compounds were prepared as 40× stocks in 100% DMSO and directly diluted into the assay. All reactions were performed in polypropylene 384-well plates in a final volume of 0.02 ml. […] The kinase concentration in the eluates was measured by qPCR.
Target sequence in this assay (Q9NYV4 whole entry, species assumed): as the sequence (Q9NYV4 whole entry, looked up, species assumed) above

CDK13 = CDK13 (Homo sapiens (Human), UniProt Q14004); experiment: Biochemical assay for CDK13, LanthaScreen Eu Kinase Binding Assay; settings: for IC50: kinase tracer 236 100 nM; for Ratio CDK7/CDK13: ratio of IC50
Text: Binding of an inhibitor to the kinase competes for binding with the tracer, resulting in a loss of FRET signal.

CDK7 = CDK7 (Homo sapiens (Human), UniProt P50613); experiment: Biochemical assay for CDK7, LANCE TR-FRET; settings: ATP 1 mM/100 μM, 60 min pre-incubation; read-out: CDK 7 IC50
Experimental: The inhibitory activity of the test compounds was assessed by the LANCE TR-FRET assay, which detects the ATP-dependent phosphorylation of an ULight-myelin basic protein (MBP) substrate peptide (100 nM) by CDK7 (10 nM). Briefly, the enzyme reaction was run in reaction buffer (20 mM HEPES (pH 7.5), 10 mM MgCl2, 0.01% Triton x, 100 μM Sodium Orthovanadate, 1 mM DTT). The assay was performed in 384-well plate. The end concentration of the ATP substrate was 1 mM/100 μM, and that of the ULight-MBP substrate peptide was 100 nM, and of CDK7 was 10 nM. Pre-incubation of the compound and enzyme was performed for 60 min at room temperature. After 60 min incubation at room temperature, the reaction was terminated by the addition of 40 mM EDTA and 1 nM Eu-labeled anti-phospho-MBP-binding protein antibody in the buffer. […] The readout was calculated as (acceptor counts/donor counts)×1000. The IC50 values were derived by fitting a sigmoidal dose-response curve to a plot of assay readout over inhibitor concentration.

Chain of CDK13 (Q14004 whole entry, looked up, species assumed): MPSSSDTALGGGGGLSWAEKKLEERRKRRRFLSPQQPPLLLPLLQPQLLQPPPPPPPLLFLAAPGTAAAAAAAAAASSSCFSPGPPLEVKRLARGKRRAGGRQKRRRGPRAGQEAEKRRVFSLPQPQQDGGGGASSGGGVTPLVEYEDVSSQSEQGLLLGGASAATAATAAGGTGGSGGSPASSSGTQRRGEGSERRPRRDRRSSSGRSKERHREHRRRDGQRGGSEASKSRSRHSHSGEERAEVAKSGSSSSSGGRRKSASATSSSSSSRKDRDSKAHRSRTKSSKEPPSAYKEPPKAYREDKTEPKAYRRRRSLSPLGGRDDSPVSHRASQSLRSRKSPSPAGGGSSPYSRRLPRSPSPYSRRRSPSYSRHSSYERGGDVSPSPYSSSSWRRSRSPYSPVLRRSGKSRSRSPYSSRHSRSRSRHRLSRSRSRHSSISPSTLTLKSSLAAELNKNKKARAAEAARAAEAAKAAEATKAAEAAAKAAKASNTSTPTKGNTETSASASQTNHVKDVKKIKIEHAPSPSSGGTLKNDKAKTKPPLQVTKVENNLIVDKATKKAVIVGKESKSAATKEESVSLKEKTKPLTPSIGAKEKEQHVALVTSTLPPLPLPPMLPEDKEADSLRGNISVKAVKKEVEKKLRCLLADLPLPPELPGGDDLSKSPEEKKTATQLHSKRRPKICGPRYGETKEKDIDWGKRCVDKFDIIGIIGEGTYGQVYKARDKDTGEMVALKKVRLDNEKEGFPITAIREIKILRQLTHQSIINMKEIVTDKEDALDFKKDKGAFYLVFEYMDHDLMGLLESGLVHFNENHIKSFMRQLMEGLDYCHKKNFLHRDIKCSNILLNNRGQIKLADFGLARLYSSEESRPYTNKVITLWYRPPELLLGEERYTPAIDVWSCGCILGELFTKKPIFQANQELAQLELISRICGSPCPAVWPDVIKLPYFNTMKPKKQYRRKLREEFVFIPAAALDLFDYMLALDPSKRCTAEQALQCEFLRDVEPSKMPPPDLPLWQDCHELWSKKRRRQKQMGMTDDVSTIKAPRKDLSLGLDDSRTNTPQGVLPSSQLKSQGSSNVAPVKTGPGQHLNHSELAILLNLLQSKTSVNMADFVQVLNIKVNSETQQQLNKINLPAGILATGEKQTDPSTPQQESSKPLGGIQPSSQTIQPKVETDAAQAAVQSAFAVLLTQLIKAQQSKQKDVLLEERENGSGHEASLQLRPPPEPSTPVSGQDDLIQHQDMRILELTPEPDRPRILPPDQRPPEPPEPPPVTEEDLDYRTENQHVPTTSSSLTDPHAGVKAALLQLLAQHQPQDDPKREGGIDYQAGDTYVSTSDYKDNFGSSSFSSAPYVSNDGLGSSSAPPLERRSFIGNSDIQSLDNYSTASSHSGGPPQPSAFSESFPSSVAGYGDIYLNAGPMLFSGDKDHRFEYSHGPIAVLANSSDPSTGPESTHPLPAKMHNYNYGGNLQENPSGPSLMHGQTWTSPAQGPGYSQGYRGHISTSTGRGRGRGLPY
Chain of CDK13 (O75909 whole entry partner, looked up, species assumed): as the sequence (O75909 whole entry partner, looked up, species assumed) above
Chain of CDK7 (P50613 whole entry, looked up, species assumed): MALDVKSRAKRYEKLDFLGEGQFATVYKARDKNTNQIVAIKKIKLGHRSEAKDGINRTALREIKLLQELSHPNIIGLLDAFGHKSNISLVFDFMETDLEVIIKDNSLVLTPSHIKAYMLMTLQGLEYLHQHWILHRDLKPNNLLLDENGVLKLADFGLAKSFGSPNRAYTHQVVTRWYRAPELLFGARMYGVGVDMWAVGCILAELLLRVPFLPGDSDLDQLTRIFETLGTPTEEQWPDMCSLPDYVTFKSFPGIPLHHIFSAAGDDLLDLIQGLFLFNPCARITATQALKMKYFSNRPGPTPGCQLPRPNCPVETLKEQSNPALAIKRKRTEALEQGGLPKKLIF
Chain of CDK7 (P51946 whole entry partner, looked up, species assumed): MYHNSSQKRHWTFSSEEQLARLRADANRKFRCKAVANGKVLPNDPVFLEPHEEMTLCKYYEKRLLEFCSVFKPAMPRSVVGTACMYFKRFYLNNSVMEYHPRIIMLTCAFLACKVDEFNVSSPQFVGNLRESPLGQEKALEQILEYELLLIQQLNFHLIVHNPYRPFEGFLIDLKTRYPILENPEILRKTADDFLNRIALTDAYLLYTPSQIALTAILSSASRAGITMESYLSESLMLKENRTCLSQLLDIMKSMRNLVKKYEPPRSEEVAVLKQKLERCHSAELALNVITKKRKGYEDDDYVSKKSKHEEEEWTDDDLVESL
Chain of CDK7 (P51948 whole entry partner, looked up, species assumed): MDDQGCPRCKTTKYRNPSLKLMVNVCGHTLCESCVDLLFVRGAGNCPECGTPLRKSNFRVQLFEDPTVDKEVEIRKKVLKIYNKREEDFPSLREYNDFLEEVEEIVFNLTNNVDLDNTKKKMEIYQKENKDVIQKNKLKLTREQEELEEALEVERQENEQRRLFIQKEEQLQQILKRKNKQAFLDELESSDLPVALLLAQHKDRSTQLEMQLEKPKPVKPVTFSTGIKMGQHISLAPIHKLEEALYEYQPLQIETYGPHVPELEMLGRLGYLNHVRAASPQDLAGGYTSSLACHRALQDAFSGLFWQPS

Row | SMILES | IC50 (CDK12 [1]) [nM] | Kd (CDK12 [2]) [nM] | IC50 (CDK13) [nM] | Ratio CDK7/CDK12 (CDK12 [1]; ratio of IC50) | Ratio CDK7/CDK13 (CDK13) | Ratio CDK7/CDK12 (CDK12 [1]) | IC50 (CDK7) [nM]
1 | N#CN1CC=C(c2ccc(CC(=O)Nc3cc(C4CC4)[nH]n3)cn2)CC1 [Compound 62, 2-(1′-cyano-1′,2′,3′,6′-tetrahydro-[2,4′-bipyridin]-5-yl)-N-(5-cyclopropyl-1H-pyrazol-3-yl)acetamide] | 4 |  |  |  |  |  | 
2 | C=CC(=O)NC1CCN(c2ccc(C(C)C(=O)Nc3cc(C4CC4)[nH]n3)cc2)CC1 (stereo not shown) [Compound 21, N-(1-(4-(1-((5-cyclopropyl-1H-pyrazol-3-yl)amino)-1-oxopropan-2-yl)phenyl)piperidin-4-yl)acrylamide] | 235 | < 25 | 73 |  |  |  | 
3 | C=CC(=O)NC1CCC(c2ccc(C(C)C(=O)Nc3cc(C4CC4)n[nH]3)cc2)CC1 (stereo not shown) [Compound 10, N-(4-(4-(1-((5-cyclopropyl-1H-pyrazol-3-yl)amino)-1-oxopropan-2-yl)phenyl)cyclohexyl)acrylamide] |  |  |  | 7.42 | 305.11 |  | 
4 | C=CC(=O)N1CCN(c2ccc(C(C)C(=O)Nc3cc(C4CC4)[nH]n3)cc2)CC1 (stereo not shown) [Compound 18, 2-(4-(4-acryloylpiperazin-1-yl)phenyl)-N-(5-cyclopropyl-1H-pyrazol-3-yl)propanamide] |  |  |  | 9.75 | 198.46 |  | 
5 | C=C(C)C(=O)N1CCC=C(c2ccc(CC(=O)Nc3cc(C4CC4)[nH]n3)cn2)C1 [Compound 57, N-(5-cyclopropy1-1H-pyrazol-3-yl)-2-(1′-methacryloyl-1′,2′,5′,6′-tetrahydro-[2,3′-bipyridin]-5-yl)acetamide] | 140 |  | 10 |  |  |  | 
6 | C=CC(=O)N1CCC=C(c2ccc(C(C(=O)Nc3cc(C4CC4)[nH]n3)C(C)C)cn2)C1 (stereo not shown) [Compound 43, 2-(1′-acryloyl-1′,2′,5′,6′-tetrahydro-[2,3′-bipyridin]-5-yl)-N-(5-cyclopropyl-1H-pyrazol-3-yl)-3-methylbutanamide] | 178 |  | 54 |  |  |  | 
7 | C=CC(=O)NC1CC=C(c2ccc(C(C)C(=O)Nc3cc(C4CC4)[nH]n3)cc2)CC1 (stereo not shown) [Compound 8, N-(4′-(1 ((5-cyclopropyl-1H-pyrazol-3-yl)amino)-1-oxopropan-2-yl)-2,3,4,5-tetrahydro-[1,1′-biphenyl]-4-yl)acrylamide] | 380 | 25 to 100 | 19 |  |  |  | 
8 | CC#CC(=O)N1CC=C(c2ccc(C(C)C(=O)Nc3cc(C4CC4)[nH]n3)cn2)CC1 (stereo not shown) [Compound 51, 2-(1′-(but-2-ynoyl)-1′,2′,3′,6′-tetrahydro-[2,4′-bipyridin]-5-yl)-N-(5-cyclopropyl-1H-pyrazol-3-yl)propanamide] | 203 |  | 25 |  | 67.68 | 8.33 | 1690
9 | C=CC(=O)N1CCCC(c2ccc(C(C)C(=O)Nc3cc(C4CC4)[nH]n3)cn2)C1 (stereo not shown) [Compound 41, 2-(6-(1-acryloylpiperidin-3-yl)pyridin-3-yl)-N-(5-cyclopropyl-1H-pyrazol-3-yl)propanamide] | 354 |  | 29 |  | 121.03 | 9.91 | 3510
10 | C=CC(=O)N1CC=C(c2ccc(C(C)C(=O)Nc3cc(C4CC4)[nH]n3)cn2)C1 (stereo not shown) [Compound 38, 2-(6-(1-acryloyl-2,5-dihydro-1H-pyrrol-3-yl)pyridin-3-yl)-N-(5-cyclopropyl-1H-pyrazol-3-yl)propanamide] | 34 |  | 100 |  | 10.1 | 29.7 | 1010
11 | C/C=C/C(=O)N1CCC=C(c2ccc(CC(=O)Nc3cc(C4CC4)[nH]n3)cn2)C1 [Compound 54, (E)-2-(1′-(but-2-enoyl)-1′,2′,5′,6′-tetrahydro-[2,3′-bipyridin]-5-yl)-N-(5-cyclopropyl-1H-pyrazol-3-yl)acetamide] | 94 |  | 3 |  |  |  | 
12 | C=CC(=O)N1CCN(c2ccc(C(C)C(=O)Nc3cc(C4CC4)[nH]n3)cc2)CC1 (single isomer, unassigned) [Compound 19, 2-(4-(4-acryloylpiperazin-1-yl)phenyl)-N-(5-cyclopropyl-1H-pyrazol-3-yl)propanamide] |  | > 100 | 5810 |  |  |  | 
13 | C=CC(=O)NC1CCC(c2ccc(C(C)C(=O)Nc3cc(C4CC4)n[nH]3)cc2)CC1 (stereo not shown) [Compound 11, N-(4-(4-(1-((5-cyclopropyl-1H-pyrazol-3-yl)amino)-1-oxopropan-2-yl)phenyl)cyclohexyl)acrylamide] |  |  |  | 3.57 | 81.02 |  | 
14 | C[C@H](C(=O)Nc1cc(C2CC2)[nH]n1)c1ccc(C2=CCN(C(=O)/C=C/CN3CCOCC3)CC2)cc1 [Compound 16, (S,E)-N-(5-cyclopropyl-1H-pyrazol-3-yl)-2-(4-(1-(4-morpholinobut-2-enoyl)-1,2,3,6-tetrahydropyridin-4-yl)phenyl)propanamide] | 646 |  | 35 |  |  |  | 
15 | C=CC(=O)N1CCC=C(c2ccc(C(CC)C(=O)Nc3cc(C4CC4)[nH]n3)cn2)C1 (stereo not shown) [Compound 39, 2-(1′-acryloyl-1′,2′,5′,6′-tetrahydro-[2,3′-bipyridin]-5-yl)-N-(5-cyclopropyl-1H-pyrazol-3-yl)butanamide] | 41 |  | 93 |  |  |  | 
16 | C=CC(=O)N1CCC=C(c2ccc(C(C)C(=O)Nc3cc(C4CC4)[nH]n3)cn2)C1 (single isomer, unassigned) [Compound 36, 2-(1′-acryloyl-1′,2′,5′,6′-tetrahydro-[2,3′-bipyridin]-5-yl)-N-(5-cyclopropyl-1H-pyrazol-3-yl)propanamide] | 686 | 25 to 100 | 153 |  |  |  | 
17 | C=CC(=O)N1CC=C(c2ccc(C(C)C(=O)Nc3cc(C4CC4)[nH]n3)cc2F)CC1 (stereo not shown) [Compound 45, 2-(4-(1-acryloyl-1,2,3,6-tetrahydropyridin-4-yl)-3-fluorophenyl)-N-(5-cyclopropyl-1H-pyrazol-3-yl)propanamide] | 445 |  | 260 |  | 22.15 | 12.94 | 5760
18 | C=CC(=O)N1CC=C(c2ccc(C(C)C(=O)Nc3cc(C4CC4)[nH]n3)cn2)C1 (stereo not shown) [Compound 47, 2-(6-(1-acryloyl-2,5-dihydro-1H-pyrrol-3-yl)pyridin-3-yl)-N-(5-cyclopropyl-1H-pyrazol-3-yl)propanamide] | 676 |  | 6 |  |  |  | 
19 | CC(C)=CC(=O)N1CCC=C(c2ccc(CC(=O)Nc3cc(C4CC4)[nH]n3)cn2)C1 [Compound 55, N-(5-cyclopropyl-1H-pyrazol-3-yl)-2-(1′-(3-methylbut-2-enoyl)-1′,2′,5′,6′-tetrahydro-[2,3′-bipyridin]-5-yl)acetamide] | 178 |  |  |  |  |  | 
20 | C=CC(=O)N1CCC=C(c2ccc(C(C)C(=O)Nc3cc(C4CC4)[nH]n3)cc2F)C1 (stereo not shown) [Compound 42, 2-(4-(1-acryloyl-1,2,5,6-tetrahydropyridin-3-yl)-3-fluorophenyl)-N-(5-cyclopropyl-1H-pyrazol-3-yl)propanamide] | 14 |  | 87 |  | 5.05 | 31.42 | 440
21 | C=CC(=O)N1CCC(c2ccc(C(C)C(=O)Nc3cc(C4CC4)[nH]n3)cn2)CC1 (stereo not shown) [Compound 13, 2-(6-(1-acryloylpiperidin-4-yl)pyridin-3-yl)-N-(5-cyclopropyl-1H-pyrazol-3-yl)propanamide] | 58 |  | 28 |  | 357.14 | 172.41 | > 10000
